{"source": "patent US9169247B2", "about": "“Tetrahydro-beta-carboline derivatives, synthesis and use thereof” (Southern Research Institute, priority 2009, dated 2015)", "key": {"[1]": {"tested_on": "normal human mammary epithelial cells (HMEC)", "assay": "Cytotoxicity to normal cells (growth assay)", "assay_type": "cell-based", "conditions": "up to a concentration of 10 μM", "method": "(§1) All human tumor cell lines were obtained from ATCC and grown under standard cell culture conditions at 37° C. in a humidified atmosphere with 5% CO2. Cells were grown in RPMI 1640 supplemented with 5% fetal bovine serum 2 mM glutamine, 100 units/ml penicillin, 100 units/ml streptomycin, and 0.25 μg/ml amphotericin. Cells were harvested at 70 to 90% confluence with trypsin/EDTA and used immediately Cell count and viability was determined by Trypan blue staining followed by hemocytometry. Only cultures displaying >95% cell viability were used for experiments. HMEC were grown according to the specifications from the supplier (Lonzo).\n(§2) Tissue culture microtiter 96-well plates were seeded with cells at a density of 5,000 cells/well. The plates were incubated for 18-24 hours prior to any treatment. All test compounds were solubilized in 100% DMSO and diluted with media to obtain a final DMSO concentration of 0.1%. Cell viability was measured 72 hours after treatment by the Cell Titer Glo Assay (Promega), which is a luminescent assay that is an indicator of live cells as a function of metabolic activity and ATP content. The assay was performed according to manufacturer's specifications. Luminescence was measured by a Perkin Elmer Victor® multi-label plate reader.^6"}, "HCT-116": {"tested_on": "HCT-116", "assay": "Growth assay (Cell Titer Glo)", "assay_type": "cell-based", "conditions": "Homo sapiens; HCT-116, colon", "outline": "(§3)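 IC50 values derive from a four-parameter logistic fit of luminescent viability data collected 72 h after dosing. Plating density was 5,000 cells/well in RPMI 1640 containing 5% FBS, with 0.1% final DMSO.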"}, "SF-268": {"tested_on": "SF-268", "assay": "Growth assay (Cell Titer Glo)", "assay_type": "cell-based", "conditions": "Homo sapiens; SF-268, CNS", "outline": "as §3"}, "SW-620": {"tested_on": "SW-620", "assay": "Growth assay (Cell Titer Glo)", "assay_type": "cell-based", "conditions": "Homo sapiens; SW-620, colon", "outline": "as §3"}, "TK-10": {"tested_on": "TK-10", "assay": "Growth assay (Cell Titer Glo)", "assay_type": "cell-based", "conditions": "Homo sapiens; TK-10, renal", "outline": "as §3"}, "[2]": {"tested_on": "human Caki-1 renal tumor cell line", "assay": "Growth assay (Cell Titer Glo)", "assay_type": "cell-based", "method": "(§4) FIGS. 3A-B illustrate the anticancer activity of compound 2j. […] The cells with treated for 72 hours prior to measuring cell viability using the Cell Titer Glo assay (Promega Corp.). […] Tumor bearing mice were treated at a dose of 10 mg/kg one time per day for 22 days.\nas §1, with “HMEC were grown according to the specifications from the supplier (Lonzo).” left out\nTissue culture microtiter 96-well plates were seeded with cells at a density of 5,000 cells/well. […] Cell viability was measured 72 hours after treatment by the Cell Titer Glo Assay (Promega), which is a luminescent assay that is an indicator of live cells as a function of metabolic activity and ATP content. […] Luminescence was measured by a Perkin Elmer Victor® multi-label plate reader.^6\n(§5) Dose response curves were analyzed using Prism™ 4 software (GraphPad) to calculate IC50 values using a four parameter logistic equation."}, "CACO-2": {"tested_on": "CACO-2", "assay": "Growth assay (Cell Titer Glo)", "assay_type": "cell-based", "conditions": "Homo sapiens; CACO-2 colon; 72 h", "method": "(§6) Compounds 2a-h were tested for tumor cell growth inhibitory activity using the human breast MDA-MB-231 and ZR75-1 tumor cell lines and the colon CACO-2, SW-1116, and HT-29 tumor cell lines.\nas §1, §2, §5"}, "SW1116": {"tested_on": "SW1116", "assay": "Growth assay (Cell Titer Glo)", "assay_type": "cell-based", "conditions": "Homo sapiens, SW 1116; SW1116 colon; 72 h", "method": "as §6, §1, §2, §5"}, "ZR75-1": {"tested_on": "ZR75-1", "assay": "Growth assay (Cell Titer Glo)", "assay_type": "cell-based", "conditions": "Homo sapiens, ZR-75-1; ZR75-1 breast; 72 h", "method": "as §6, §1, §2, §5"}, "HT-29": {"tested_on": "HT-29", "assay": "Growth assay (Cell Titer Glo)", "assay_type": "cell-based, human", "conditions": "HT-29 colon", "method": "as §6, §1, §2, §5"}, "[3]": {"tested_on": "human MDA-MB-231 breast tumor cells", "assay": "cGMP assay (intracellular cGMP, immunoassay)", "assay_type": "cell-based", "conditions": "treated for 30 minutes, FIG. 1", "method": "FIG. 1A illustrates the induction of intracellular cGMP levels in cultured human MDA-MB-231 breast tumor cells treated for 30 minutes with compound 2f. […] The + indicates the effects of a positive control, sulindac sulfide tested at 100 μM. The cells were treated for 30 minutes prior to measuring intracellular cGMP levels by immunoassay. The * indicates statistical significance with p<0.05.\nCells were seeded at a density of 1×10^6 cells per 10 cm tissue culture dish, incubated for 48 hours, and treated with the specified compound or vehicle control. After 30 minutes of treatment, cells were lysed and assayed for cGMP content using the cGMP Direct Biotrak EIA kit (GE Biosciences). The assay was performed according to the manufacturer's specifications. Optical density was measured at 630 nm using a Synergy4 (BioTek) plate reader."}, "SK-MEL-5": {"tested_on": "SK-MEL-5", "assay": "Growth assay (Cell Titer Glo)", "assay_type": "cell-based", "conditions": "Homo sapiens; SK-MEL-5, melanoma", "outline": "as §3"}, "NCI-H226": {"tested_on": "NCI-H226", "assay": "Growth assay (Cell Titer Glo)", "assay_type": "cell-based", "conditions": "Homo sapiens; NCI-H226, lung", "outline": "as §3"}, "K562": {"tested_on": "K562", "assay": "Growth assay (Cell Titer Glo)", "assay_type": "cell-based", "conditions": "Homo sapiens; K562, hematopoietic", "outline": "as §3"}, "MDA-MB-468": {"tested_on": "MDA-MB-468", "assay": "Growth assay (Cell Titer Glo)", "assay_type": "cell-based", "conditions": "Homo sapiens; MDA-MB-468, breast", "outline": "as §3"}, "SF-295": {"tested_on": "SF-295", "assay": "Growth assay (Cell Titer Glo)", "assay_type": "cell-based", "conditions": "Homo sapiens; SF-295, CNS", "outline": "as §3"}, "A498": {"tested_on": "A498", "assay": "Growth assay (Cell Titer Glo)", "assay_type": "cell-based", "conditions": "Homo sapiens; A498, renal", "outline": "as §3"}, "Hs578T": {"tested_on": "Hs578T", "assay": "Growth assay (Cell Titer Glo)", "assay_type": "cell-based", "conditions": "Homo sapiens, Hs-578T, breast", "outline": "as §3"}, "OVCAR-3": {"tested_on": "OVCAR-3", "assay": "Growth assay (Cell Titer Glo)", "assay_type": "cell-based", "conditions": "Homo sapiens; OVCAR-3, ovarian", "outline": "as §3"}, "NCI-H522": {"tested_on": "NCI-H522", "assay": "Growth assay (Cell Titer Glo)", "assay_type": "cell-based", "conditions": "Homo sapiens; NCI-H522, lung", "outline": "as §3"}, "HOP-92": {"tested_on": "HOP-92", "assay": "Growth assay (Cell Titer Glo)", "assay_type": "cell-based", "conditions": "Homo sapiens; HOP-92, lung", "outline": "as §3"}, "A549": {"tested_on": "A549", "assay": "Growth assay (Cell Titer Glo)", "assay_type": "cell-based", "conditions": "Homo sapiens; A549, lung", "outline": "as §3"}, "HCC-2998": {"tested_on": "HCC-2998", "assay": "Growth assay (Cell Titer Glo)", "assay_type": "cell-based", "conditions": "Homo sapiens; HCC-2998, colon", "outline": "as §3"}, "SK-MEL-2": {"tested_on": "SK-MEL-2", "assay": "Growth assay (Cell Titer Glo)", "assay_type": "cell-based", "conditions": "Homo sapiens; SK-MEL-2, melanoma", "outline": "as §3"}, "MDA-MB-435": {"tested_on": "MDA-MB-435", "assay": "Growth assay (Cell Titer Glo)", "assay_type": "cell-based", "conditions": "Homo sapiens; MDA-MB-435, melanoma", "outline": "as §3"}, "BT-549": {"tested_on": "BT-549", "assay": "Growth assay (Cell Titer Glo)", "assay_type": "cell-based", "conditions": "Homo sapiens; BT-549, breast", "outline": "as §3"}, "COLO205": {"tested_on": "COLO205", "assay": "Growth assay (Cell Titer Glo)", "assay_type": "cell-based", "conditions": "Homo sapiens, COLO 205; COLO205, colon", "outline": "as §3"}, "[4]": {"tested_on": "human Caki-1 renal tumor mouse xenograft", "assay": "Caki-1 renal tumor mouse xenograft model", "assay_type": "in vivo", "conditions": "10 mg/kg one time per day for 22 days; FIG. 3B", "method": "as §4"}}, "note": "“Also recorded” adds a separate entry of the source. Read-outs that look alike come from different tables or passages of the source.", "data": [{"smiles": "COC(=O)[C@H]1Cc2c([nH]c3ccccc23)[C@H](c2cc(OC)ccc2OC)N1C(=O)CCl", "note": "[Compound 2f, Methyl (1S,3R)-1-(2,5-dimethoxyphenyl)-2-(2-chloroacetyl)-2,3,4,9-tetrahydro-1H-β-carboline-3-carboxylate]", "values": [{"measurement": "cytotoxicity to normal human mammary epithelial cells (HMEC)", "setting": "[1]", "result": "insensitive; also recorded: no cytotoxicity"}, {"measurement": "IC50", "setting": "HCT-116", "result": "> 10000", "unit": "nM"}, {"measurement": "IC50", "setting": "SF-268", "result": 690, "unit": "nM"}, {"measurement": "IC50", "setting": "SW-620", "result": 3310, "unit": "nM"}, {"measurement": "IC50", "setting": "TK-10", "result": 78, "unit": "nM"}, {"measurement": "IC50", "setting": "[2]; CAKI-1, CAKI-1, renal, read-out: IC50", "result": "< 6", "unit": "nM"}, {"measurement": "melting point", "result": 232, "unit": "°C"}, {"measurement": "IC50", "setting": "CACO-2", "result": 0.01, "unit": "µM"}, {"measurement": "IC50", "setting": "SW1116", "result": 4.4, "unit": "µM"}, {"measurement": "IC50", "setting": "ZR75-1", "result": 1.2, "unit": "µM"}, {"measurement": "IC50", "setting": "HT-29; 72 h", "result": 0.452, "unit": "µM"}, {"measurement": "IC50", "setting": "HT-29; Homo sapiens, HT-29, 72 h", "result": 0.45, "unit": "µM"}, {"measurement": "intracellular cGMP levels", "setting": "[3]", "result": "induction; also recorded: increase"}]}, {"smiles": "COC(=O)[C@H]1Cc2c([nH]c3ccccc23)[C@H](c2ccc(Cl)cc2Cl)N1C(=O)CCl", "note": "[Compound 2j, (1S,3R) Methyl 1-(2,4-dichlorophenyl)-2-(2-chloroacetyl)-2,3,4,9-tetrahydro-1H-β-carboline-3-carboxylate]", "values": [{"measurement": "IC50", "setting": "SK-MEL-5", "result": "> 3000", "unit": "nM"}, {"measurement": "IC50", "setting": "NCI-H226", "result": 1410, "unit": "nM"}, {"measurement": "IC50", "setting": "K562", "result": 1250, "unit": "nM"}, {"measurement": "IC50", "setting": "MDA-MB-468", "result": 130, "unit": "nM"}, {"measurement": "IC50", "setting": "SF-295", "result": 70, "unit": "nM"}, {"measurement": "IC50", "setting": "A498", "result": 96, "unit": "nM"}, {"measurement": "IC50", "setting": "Hs578T", "result": 220, "unit": "nM"}, {"measurement": "IC50", "setting": "OVCAR-3", "result": 130, "unit": "nM"}, {"measurement": "IC50", "setting": "NCI-H522", "result": 16, "unit": "nM"}, {"measurement": "IC50", "setting": "HOP-92", "result": 20, "unit": "nM"}, {"measurement": "IC50", "setting": "A549", "result": "> 3000", "unit": "nM"}, {"measurement": "IC50", "setting": "HCC-2998", "result": 2260, "unit": "nM"}, {"measurement": "IC50", "setting": "SK-MEL-2", "result": 920, "unit": "nM"}, {"measurement": "IC50", "setting": "HCT-116", "result": "> 3000", "unit": "nM"}, {"measurement": "IC50", "setting": "SF-268", "result": 100, "unit": "nM"}, {"measurement": "IC50", "setting": "SW-620", "result": 2750, "unit": "nM"}, {"measurement": "IC50", "setting": "TK-10", "result": 200, "unit": "nM"}, {"measurement": "IC50", "setting": "MDA-MB-435", "result": 640, "unit": "nM"}, {"measurement": "IC50", "setting": "BT-549", "result": 760, "unit": "nM"}, {"measurement": "IC50", "setting": "COLO205", "result": 1440, "unit": "nM"}, {"measurement": "IC50", "setting": "[2]; CAKI-1, 72 h, FIG. 3A legend, read-out: IC50 value, tumor cell growth", "result": 2.3, "unit": "nM"}, {"measurement": "in vivo tumor growth", "setting": "[4]", "result": "strongly suppressed tumor growth; also recorded: strong in vivo antitumor activity"}, {"measurement": "melting point", "result": "106 to 109", "unit": "°C"}, {"measurement": "IC50", "setting": "HT-29; Homo sapiens, HT-29, 72 h", "result": 0.65, "unit": "µM"}]}]}
